From patent US8309568B2, “Transdermally deliverable opioid prodrugs, abuse-resistant compositions and methods of using opioid prodrugs” (Alltranz Inc., priority 2006, dated 2012)
Read-outs that look alike come from different tables or passages of the source.

Experiments:
[1] = not given; remark: listed apart in the source
[2] = Table 8, gel formulation, analyte buprenorphine from prodrug
[3] = Table 8, gel formulation, analyte intact prodrug
[4] = Table 8, gel formulation, analyte total buprenorphine (buprenorphine and/or prodrug)
[5] = Table 8, gel formulation, total buprenorphine flux relative to buprenorphine
[6] = Table 9, propylene glycol, analyte buprenorphine from prodrug
[7] = Table 9, propylene glycol, analyte intact prodrug
[8] = Table 9, propylene glycol, analyte total buprenorphine (buprenorphine and/or prodrug)
[9] = Table 6, propylene glycol, 25% aq. ethanol receiver, analyte buprenorphine from prodrug
[10] = Table 6, propylene glycol, 25% aq. ethanol receiver, analyte intact prodrug
[11] = Table 6, propylene glycol, 25% aq. ethanol receiver, analyte total buprenorphine (buprenorphine and/or prodrug)
[12] = Table 11, propylene glycol, analyte buprenorphine from prodrug
[13] = Table 11, propylene glycol, analyte total buprenorphine (buprenorphine and/or prodrug)
[14] = Table 11, propylene glycol, total buprenorphine flux relative to buprenorphine
[15] = Table 11, propylene glycol, analyte intact prodrug
[16] = Table 10, gel formulation, analyte intact prodrug
[17] = Table 10, gel formulation, analyte total buprenorphine (buprenorphine and/or prodrug)
[18] = Table 12, propylene glycol/ethanol [96:4], analyte buprenorphine from prodrug
[19] = Table 12, propylene glycol/ethanol [96:4], analyte intact prodrug
[20] = Table 12, propylene glycol/ethanol [96:4], analyte total buprenorphine (buprenorphine and/or prodrug)
[21] = Table 13, gel formulation, analyte buprenorphine from prodrug
[22] = Table 13, gel formulation, analyte total buprenorphine (buprenorphine and/or prodrug)

COCCOCCOCCOC(=O)Oc1ccc2c3c1OC1C4(OC)CC[C@]5(CC4C(C)(O)C(C)(C)C)[C@@H](C2)N(CC2CC2)CC[C@]315 (stereo partly drawn) [ALL00106, Buprenorphine 3,6,9-trioxadecyl carbonate]
form in which the prodrug permeated through the skin (Hanks' buffer receiver fluid): permeated through the human skin as buprenorphine | 24 h cumulative amt (Table 3, donor propylene glycol, Hanks' buffer receiver, buprenorphine permeated): 11.4 ± 0.8 nmol | Flux (Table 3, donor propylene glycol, Hanks' buffer receiver, total buprenorphine flux): 0.54±0.07 nmol/cm^2/h | Flux enhancement (Table 3, donor propylene glycol, flux relative to buprenorphine): 1.20 | 24 h cumulative amt [2]: 1.7 ± 0.3 nmol | Flux [2]: 0.2 ± 0.1 nmol/cm^2/h | Lag time [2]: 4.7 ± 1.5 h | 24 h cumulative amt [3]: 3.8 ± 0.3 nmol | Flux [3]: 0.3 ± 0.0 nmol/cm^2/h | Lag time [3]: 8.2 ± 0.8 h | 24 h cumulative amt [4]: 5.5 ± 0.5 nmol | Flux [4]: 0.4 ± 0.1 nmol/cm^2/h | Lag time [4]: 6.5 ± 1.1 h | Flux enhancement [5]: 0.4 | 24 h cumulative amt [6]: 30.1 ± 13.2 nmol | Flux [6]: 2.3 ± 0.8 nmol/cm^2/h | Lag time [6]: 10.2 ± 1.4 h | 24 h cumulative amt [7]: 18.8 ± 4.6 nmol | Flux [7]: 1.5 ± 0.3 nmol/cm^2/h | Lag time [7]: 11.1 ± 1.2 h | 24 h cumulative amt [8]: 48.9 ± 17.6 nmol | Flux [8]: 3.8 ± 1.1 nmol/cm^2/h | Lag time [8]: 10.6 ± 1.3 h | Flux enhancement (Table 9, propylene glycol, total buprenorphine flux relative to buprenorphine): 3.2 | 24 h skin conc ([1]; Table 3, donor propylene glycol, Hanks' buffer receiver, analyte buprenorphine (Bup)): 0.2 ± 0.1 (Bup) μmol/g | 24 h skin conc ([1]; Table 3, donor propylene glycol, Hanks' buffer receiver, analyte intact prodrug (PD)): 2.1 ± 1.5 (PD) μmol/g | 24 h skin conc [1, 2]: 0.3 ± 0.1 µmol/g | 24 h skin conc [1, 3]: 11.9 ± 3.6 µmol/g | 24 h skin conc [1, 4]: 12.2 ± 3.6 µmol/g | 24 h skin conc [1, 6]: 1.6 ± 0.4 µmol/g | 24 h skin conc [1, 7]: 10.4 ± 4.0 µmol/g | 24 h skin conc [1, 8]: 11.9 ± 4.4 µmol/g

COCCOCCOCC(=O)Oc1ccc2c3c1O[C@H]1[C@@]4(OC)CC[C@@]5(C[C@@H]4[C@@](C)(O)C(C)(C)C)[C@@H](C2)N(CC2CC2)CC[C@]315 [ALL00108, Buprenorphine 2-[2-(2-methoxyethoxy)ethoxy]acetyl ester]
24 h cumulative amt [9]: 9.7 ± 0.4 nmol | Flux [9]: 0.90 ± 0.07 nmol/cm^2/h | Lag time [9]: 12.5 ± 1.3 h | 24 h cumulative amt [10]: 7.6 ± 2.0 nmol | 24 h cumulative amt [11]: 17.3 ± 1.6 nmol | Flux [11]: 1.01±0.07 nmol/cm^2/h | Lag time [11]: 6.0 ± 0.5 h | Flux enhancement (Table 6, propylene glycol, 25% aq. ethanol receiver, total buprenorphine flux relative to buprenorphine): 2.35 | 24 h cumulative amt [2]: 21.0 ± 6.7 nmol | Flux [2]: 1.2 ± 0.6 nmol/cm^2/h | Lag time [2]: 7.8 ± 0.8 h | 24 h cumulative amt [4]: 21.0 ± 6.7 nmol | Flux [4]: 1.2±0.6 nmol/cm^2/h | Lag time [4]: 7.8 ± 0.8 h | Flux enhancement [5]: 1.3 | 24 h cumulative amt [12]: 5.8 ± 0.7 nmol | Flux [12]: 0.5 ± 0.0 nmol/cm^2/h | Lag time [12]: 10.9 ± 2.4 h | 24 h cumulative amt [13]: 5.8 ± 0.7 nmol | Flux [13]: 0.5±0.0 nmol/cm^2/h | Lag time [13]: 10.9 ± 2.4 h | Flux enhancement [14]: 1.7 | form in which the prodrug permeated through the skin (aqueous ethanol receiver fluid): permeated through the skin as buprenorphine and intact prodrug | cumulative amount (nmol) higher than the buprenorphine base (aqueous ethanol receiver, propylene glycol, relative to buprenorphine base): 4 × | 24 h skin conc [1, 9]: 0.4 ± 0.1 µmol/g | 24 h skin conc [1, 10]: 1.0 ± 0.3 µmol/g | 24 h skin conc [1, 11]: 1.4 ± 0.4 µmol/g | 24 h skin conc [1, 2]: 0.2 ± 0.2 µmol/g | 24 h skin conc [1, 3]: 1.9 ± 1.6 µmol/g | 24 h skin conc [1, 4]: 2.2 ± 1.8 µmol/g | 24 h skin conc [1, 15]: 2.4 ± 0.7 µmol/g | 24 h skin conc [1, 13]: 2.4 ± 0.7 µmol/g

COCCOCCOCCOCCOC(=O)Oc1ccc2c3c1OC1C4(OC)CC[C@]5(CC4C(C)(O)C(C)(C)C)[C@@H](C2)N(CC2CC2)CC[C@]315 (stereo partly drawn) [ALL00115, Buprenorphine 3,6,9,12-tetraoxatridecyl carbonate]
24 h cumulative amt [16]: 4.5 ± 1.3 nmol | Flux [16]: 0.2 ± 0.1 nmol/cm^2/h | Lag time [16]: 7.6 ± 0.5 h | 24 h cumulative amt [17]: 4.5 ± 1.3 nmol | Flux [17]: 0.2±0.1 nmol/cm^2/h | Lag time [17]: 7.6 ± 0.5 h | Flux enhancement (Table 10, gel formulation, total buprenorphine flux relative to buprenorphine): 1.2 | 24 h cumulative amt [15]: 6.0 ± 1.3 nmol | 24 h cumulative amt [13]: 6.0 ± 1.3 nmol | Flux [13]: 0.7±0.2 nmol/cm^2/h | Lag time [13]: 9.4 ± 8.5 h | Flux enhancement [14]: 2.3 | form detected in the receiver fluid (both the gel formulation and propylene glycol): mostly detected as intact prodrug | 24 h skin conc ([1]; Table 10, gel formulation, analyte buprenorphine from prodrug): 0.1 ± 0.0 µmol/g | 24 h skin conc [1, 16]: 3.4 ± 0.6 µmol/g | 24 h skin conc [1, 17]: 1.4 ± 0.4 µmol/g | 24 h skin conc [1, 15]: 0.8 ± 0.2 µmol/g | 24 h skin conc [1, 13]: 0.8 ± 0.2 µmol/g

COCCOCCOCCOCC(=O)Oc1ccc2c3c1OC1C4(OC)CC[C@]5(CC4C(C)(O)C(C)(C)C)[C@@H](C2)N(CC2CC2)CC[C@]315 (stereo partly drawn) [ALL00116, Buprenorphine 3,6,9,12-tetraoxatridecanoyl ester]
24 h cumulative amt [18]: 8.7 ± 1.2 nmol | Flux [18]: 0.8 ± 0.2 nmol/cm^2/h | Lag time [18]: 13.2 ± 0.8 h | 24 h cumulative amt [19]: 21.7 ± 6.7 nmol | Flux [19]: 1.9 ± 0.6 nmol/cm^2/h | Lag time [19]: 11.8 ± 1.4 h | 24 h cumulative amt [20]: 30.4 ± 7.0 nmol | Flux [20]: 2.7±0.7 nmol/cm^2/h | Lag time [20]: 12.3 ± 1.2 h | Flux enhancement (Table 12, propylene glycol/ethanol [96:4], total buprenorphine flux relative to buprenorphine): 9.2 | 24 h cumulative amt [21]: 5.5 ± 0.6 nmol | Flux [21]: 0.4 ± 0.1 nmol/cm^2/h | Lag time [21]: 7.2 ± 0.6 h | 24 h cumulative amt [22]: 5.5 ± 0.6 nmol | Flux [22]: 0.4±0.1 nmol/cm^2/h | Lag time [22]: 7.2 ± 0.6 h | Flux enhancement (Table 13, gel formulation, total buprenorphine flux relative to buprenorphine): 1.2 | 24 h skin conc [1, 18]: 2.4 ± 0.9 µmol/g | 24 h skin conc [1, 19]: 20.4 ± 5.8 µmol/g | 24 h skin conc [1, 20]: 22.7 ± 6.8 µmol/g | 24 h skin conc [1, 21]: 0.2 ± 0.0 µmol/g | 24 h skin conc ([1]; Table 13, gel formulation, analyte intact prodrug): 3.3 ± 0.8 µmol/g | 24 h skin conc [1, 22]: 3.5 ± 0.9 µmol/g
